The assay deals with L1210 leukemia ip in BDF1 mice, survival T/C. Description: NCI In Vivo Anticancer Drug Screen. Data for tumor model L1210 Leukemia (intraperitoneal) in B6D2F1 (BDF1) mice. Particulars: endpoint: mean survival time, higher = longer survival. Put shortly:
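Survival endpoint. Drug-treated group vs vehicle group, expressed as T divided by C. Tumor passaged by transplantation.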

The mark [1] stands for this setting: dose: 100.0 mg/kg/injection, schedule: Q04DX002 (ip), vehicle: saline.
Setting [2] is: dose: 200.0 mg/kg/injection, schedule: Q04DX002 (ip), vehicle: saline.
Setting [3] is: dose: 400.0 mg/kg/injection, schedule: Q04DX002 (ip), vehicle: saline.
[4] abbreviates: dose: 100.0 mg/kg/injection, schedule: Q01DX009 (ip), vehicle: saline with Tween-80.
[5] abbreviates: dose: 200.0 mg/kg/injection, schedule: Q01DX009 (ip), vehicle: saline with Tween-80.
[6] abbreviates: dose: 400.0 mg/kg/injection, schedule: Q01DX009 (ip), vehicle: saline with Tween-80.
[7] abbreviates: dose: 100.0 mg/kg/injection, schedule: Q01DX009 (ip), vehicle: Klucel (hydroxypropylcellulose) (HPC).
[8] abbreviates: dose: 100.0 mg/kg/injection, schedule: Q04DX003 (ip), vehicle: Klucel (hydroxypropylcellulose) (HPC).
The mark [9] stands for this setting: dose: 200.0 mg/kg/injection, schedule: Q04DX003 (ip), vehicle: Klucel (hydroxypropylcellulose) (HPC).
Setting [10] is: dose: 100.0 mg/kg/injection, schedule: Q01DX001 (ip), vehicle: carboxymethylcellulose (CMC).
[11] abbreviates: dose: 200.0 mg/kg/injection, schedule: Q01DX001 (ip), vehicle: carboxymethylcellulose (CMC).
Where [12] appears, read: dose: 400.0 mg/kg/injection, schedule: Q01DX001 (ip), vehicle: carboxymethylcellulose (CMC).
Where [13] appears, read: dose: 100.0 mg/kg/injection, schedule: Q04DX002 (ip), vehicle: Klucel (hydroxypropylcellulose) (HPC).
Where [14] appears, read: dose: 200.0 mg/kg/injection, schedule: Q04DX002 (ip), vehicle: Klucel (hydroxypropylcellulose) (HPC).
The mark [15] stands for this setting: dose: 400.0 mg/kg/injection, schedule: Q04DX002 (ip), vehicle: Klucel (hydroxypropylcellulose) (HPC).
Setting [16] is: dose: 75.0 mg/kg/injection, schedule: Q04DX002 (ip), vehicle: Klucel (hydroxypropylcellulose) (HPC).
[17] abbreviates: dose: 150.0 mg/kg/injection, schedule: Q04DX002 (ip), vehicle: Klucel (hydroxypropylcellulose) (HPC).
Setting [18] is: dose: 300.0 mg/kg/injection, schedule: Q04DX002 (ip), vehicle: Klucel (hydroxypropylcellulose) (HPC).

Values joined by “and” are separate entries in the source; they are usually repeats but may differ in a detail not shown here. Identical values can stand only once. Toxic doses and inconclusive results are not listed.

The source of these data is PubChem BioAssay AID248 (DTP/NCI, 2004).

For `NC(N)=N/N=C1\CCCC\C1=N/N=C(N)N`, the T/C was 97 % of control (dose: 15.0 mg/kg/injection, schedule: Q01DX Z (ip), vehicle: carboxymethylcellulose (CMC)); 95 % of control (dose: 30.0 mg/kg/injection, schedule: Q01DX Z (ip), vehicle: carboxymethylcellulose (CMC)); 91 % of control (dose: 60.0 mg/kg/injection, schedule: Q01DX Z (ip), vehicle: carboxymethylcellulose (CMC)); 96 % of control (dose: 60.0 mg/kg/injection, schedule: Q01DX Z (oral), vehicle: carboxymethylcellulose (CMC)); 102 % of control (dose: 120.0 mg/kg/injection, schedule: Q01DX Z (ip), vehicle: carboxymethylcellulose (CMC)); 93 % of control (dose: 120.0 mg/kg/injection, schedule: Q01DX Z (oral), vehicle: carboxymethylcellulose (CMC)). The T/C (dose: 240.0 mg/kg/injection, schedule: Q01DX Z (oral), vehicle: carboxymethylcellulose (CMC)) was 88 % of control and the T/C (dose: 480.0 mg/kg/injection, schedule: Q01DX Z (oral), vehicle: carboxymethylcellulose (CMC)) was 98 % of control.
For `CC(C)(C)C(=O)CC(=O)C(C)(C)C.CC(C)(C)C(=O)CC(=O)C(C)(C)C.CC(C)(C)C(=O)CC(=O)C(C)(C)C.[Sm]`, the T/C (dose: 100.0 mg/kg/injection, schedule: Q01DX005 (ip), vehicle: saline) is 112 % of control; the T/C (dose: 100.0 mg/kg/injection, schedule: Q01DX009 (ip), vehicle: saline) was 106 % of control; the T/C under setting [1] was 92 % of control; the T/C (dose: 200.0 mg/kg/injection, schedule: Q01DX005 (ip), vehicle: saline) was 109 % of control; the T/C (dose: 200.0 mg/kg/injection, schedule: Q01DX009 (ip), vehicle: saline) was 103 % of control; the T/C under setting [2] was 95 % of control. Also, the T/C runs as follows: (dose: 400.0 mg/kg/injection, schedule: Q01DX005 (ip), vehicle: saline) 98 % of control; (dose: 400.0 mg/kg/injection, schedule: Q01DX009 (ip), vehicle: saline) 98 % of control; under setting [3], 103 % of control.
On to `O=C1OCC/C1=C1\CCCO1`, for which the T/C under setting [4] was 93 % of control, the T/C under setting [5] was 100 % of control and the T/C under setting [6] was 96 % of control.
In the same order, the values of `O=C(O)c1ccc(S(=O)(=O)N(Cl)Cl)cc1` are 96 % of control, 100 % of control and 98 % of control.
For `O=C(O)CC(SC(c1ccccc1)(c1ccccc1)c1ccccc1)C(=O)O` (centres undefined), the T/C by setting is: under setting [7], 93 % of control; under setting [8], 98 % of control; (dose: 200.0 mg/kg/injection, schedule: Q01DX009 (ip), vehicle: Klucel (hydroxypropylcellulose) (HPC)) 90 % of control; under setting [9], 102 % of control; (dose: 400.0 mg/kg/injection, schedule: Q04DX003 (ip), vehicle: Klucel (hydroxypropylcellulose) (HPC)) 96 % of control.
`NC(=S)N1CCOCC1`: the T/C under setting [1] was 97 % of control, the T/C under setting [2] was 101 % of control and the T/C under setting [3] is 108 % of control.
For the molecule `CCOc1ccccc1/C=N/NC(=O)C(O)(c1ccccc1)c1ccccc1`, the T/C under setting [10] is 101 % of control, the T/C under setting [11] is 101 % of control and the T/C under setting [12] was 97 % of control.
As to `CCCCCCCCCCCCCCCOc1ccc2ccccc2c1`, the T/C was 326 % of control (dose: 100.0 mg/kg/injection, schedule: Q01DX001 (ip), vehicle: Klucel (hydroxypropylcellulose) (HPC)); 326 % of control (dose: 200.0 mg/kg/injection, schedule: Q01DX001 (ip), vehicle: Klucel (hydroxypropylcellulose) (HPC)); 326 % of control (dose: 400.0 mg/kg/injection, schedule: Q01DX001 (ip), vehicle: Klucel (hydroxypropylcellulose) (HPC)).
Take `c1cc2cc3c(cc2cc1CC1NCCc2cc4c(cc21)OCO4)OCO3` (centres undefined): the T/C is, setting by setting: (dose: 50.0 mg/kg/injection, schedule: Q01DX009 (ip), vehicle: Klucel (hydroxypropylcellulose) (HPC)) 88 % of control; under setting [7], 101 % of control; under setting [8], 100 % of control; under setting [9], 94 % of control.
Turning to `CC(C)(C)c1ccc(O)cc1`, under setting [4], the T/C was 89 % of control.
For the molecule `O=C(Nc1cccc(O)c1)Nc1cccc(C(F)(F)F)c1`, the T/C was 92 % of control and 101 % of control under setting [10]; 94 % of control and 96 % of control (dose: 100.0 mg/kg/injection, schedule: Q01DX009 (ip), vehicle: carboxymethylcellulose (CMC)); 92 % of control and 93 % of control (dose: 100.0 mg/kg/injection, schedule: Q04DX002 (ip), vehicle: carboxymethylcellulose (CMC)); 95 % of control and 100 % of control (dose: 100.0 mg/kg/injection, schedule: Q04DX003 (ip), vehicle: carboxymethylcellulose (CMC)); 96 % of control and 87 % of control under setting [11]; 94 % of control and 100 % of control (dose: 200.0 mg/kg/injection, schedule: Q01DX009 (ip), vehicle: carboxymethylcellulose (CMC)). Further, the T/C was 92 % of control and 86 % of control (dose: 200.0 mg/kg/injection, schedule: Q04DX002 (ip), vehicle: carboxymethylcellulose (CMC)); 92 % of control and 91 % of control (dose: 200.0 mg/kg/injection, schedule: Q04DX003 (ip), vehicle: carboxymethylcellulose (CMC)); 92 % of control and 93 % of control under setting [12]; 100 % of control and 91 % of control (dose: 400.0 mg/kg/injection, schedule: Q01DX009 (ip), vehicle: carboxymethylcellulose (CMC)); 95 % of control and 100 % of control (dose: 400.0 mg/kg/injection, schedule: Q04DX002 (ip), vehicle: carboxymethylcellulose (CMC)); 87 % of control and 91 % of control (dose: 400.0 mg/kg/injection, schedule: Q04DX003 (ip), vehicle: carboxymethylcellulose (CMC)).
Consider `CC(C)OP(=S)(S)OC(C)C`, for which the T/C by setting is: (dose: 100.0 mg/kg/injection, schedule: Q04DX003 (ip), vehicle: saline) 112 % of control; (dose: 200.0 mg/kg/injection, schedule: Q04DX003 (ip), vehicle: saline) 96 % of control; (dose: 400.0 mg/kg/injection, schedule: Q04DX003 (ip), vehicle: saline) 102 % of control.
As to `CC(=O)c1ccc2oc3ccccc3c2c1`, the T/C is 97 % of control under setting [13], 100 % of control under setting [14] and 93 % of control under setting [15].
As for `CCCOC(=O)N(C)c1ccccc1`, the T/C is 101 % of control under setting [16], 101 % of control under setting [17] and 101 % of control under setting [18].
Regarding `NNC(=O)c1ncn(C2OC(CO)C(O)C2O)c1C(=O)NN` (centres undefined), the T/C (dose: 50.0 mg/kg/injection, schedule: Q01DX001 (ip), vehicle: saline) is 102 % of control; the T/C (dose: 100.0 mg/kg/injection, schedule: Q01DX001 (ip), vehicle: saline) is 98 % of control; the T/C (dose: 200.0 mg/kg/injection, schedule: Q01DX001 (ip), vehicle: saline) is 102 % of control; the T/C (dose: 400.0 mg/kg/injection, schedule: Q01DX001 (ip), vehicle: saline) was 98 % of control.
As to `CN1C(=O)CN(CCN2CC(=O)N(C)C2=S)C1=S`, the T/C reads like this: under setting [13], 105 % of control; under setting [14], 97 % of control; under setting [15], 90 % of control.
Take `O=C(NC(=S)Nc1ccccc1)c1ccc([N+](=O)[O-])cc1`: the T/C was 98 % of control (dose: 75.0 mg/kg/injection, schedule: Q01DX001 (ip), vehicle: carboxymethylcellulose (CMC)); 90 % of control (dose: 150.0 mg/kg/injection, schedule: Q01DX001 (ip), vehicle: carboxymethylcellulose (CMC)); 101 % of control (dose: 300.0 mg/kg/injection, schedule: Q01DX001 (ip), vehicle: carboxymethylcellulose (CMC)).
On to `CS(=O)(=O)c1ccc2c(c1)-c1ccccc1C2=O`, for which the T/C runs as follows: under setting [10], 96 % of control; under setting [11], 104 % of control; under setting [12], 98 % of control.
Turning to `CC(=O)Oc1c2c(n3c1CCC3)CC(C)(C)CC2=O`, the T/C was 102 % of control under setting [16], 97 % of control under setting [17] and 87 % of control under setting [18].
